# Test: Competition Study 2: ZrCl4(THF)2 added to mixture of DFOPhSO3H and DFOSqTaur, ESI-MS
# Assay type: binding
# Conditions: 50° C., 7 hours, FIG. 46
# Procedure: A 3 mM stock solution of each ligand, DFOPhSO3H and DFOSqTaur, was prepared in a mixture of H2O and MeOH (concentrations were confirmed prior to dilution by UV-Vis Fe^3+ titration in H2O, 430 nm). A mixture of both solutions (25 uL each) was mixed thoroughly and heated to 50° C. A stock solution of ZrCl4(THF)2 in H2O/MeOH (3 mM) was also prepared, and 20 uL of this was added to the ligand mixture. The mixture was incubated at 50° C. for 7 hours.
compound,measurement,value
CC(=O)N(O)CCCCCNC(=O)CCC(=O)N(O)CCCCCNC(=O)CCC(=O)N(O)CCCCCNc1c(NCCS(=O)(=O)O)c(=O)c1=O [DFOSqTaur],Zr complex found in competition with DFOPhSO3H,presence of the ZrDFOSqTaur complex
